Test results reported in patent US9426996B2, “Use of benzoxaboroles as volatile antimicrobial agents on meats, plants, or plant parts” (AgroFresh Inc., priority 2013, dated 2016).

How the values were obtained:
[1] = test system: Botrytis cinerea; assay: in vivo strawberry assay, release from cellulose paper and Tyvek fabric; details: strawberries
Protocol: An in vivo assay is used to evaluate the ability of Compound A to volatilize from different materials and control fungal pathogens. Eight strawberries are placed in a clamshell with stem end facing downwards. […] The clamshells are then placed in a 10.8-cup SnapWare airtight container (Model #109842). Compound A is dissolved in acetone and then evenly sprayed onto cellulose paper and Tyvek® fabric at a rate of 200 milligrams per square meter (mg/m^2). The acetone is allowed to evaporate. Likewise Compound A is dissolved in propylene glycol and evenly sprayed onto cellulose paper and Tyvek® fabric. No evaporation is attempted in this case.
Pieces of material are cut to the appropriate dimensions to deliver a final headspace concentration of 0.4, 2, or 10 mg/L. The containers are close, and placed for three days at 21° C. After treatment, fruit are stored for an additional two days at 21° C. and then evaluated for incidence (%) and severity (0 to 4) of disease, with the results summarized in Table 23.

[2] = test system: Botrytis cinerea; assay: in vitro inhibition assay for volatile antimicrobial compounds (12-well PDA plates); assay type: cell-based; details: in vitro; volatile; 14 days at 4° C.
Protocol: 12-Well (7 milliliter (mL volume per well) microtiter plates are used for the in vitro inhibition assay for volatile antimicrobial compounds. A 3-mL volume of full-strength Potato Dextrose Agar (PDA) is added to each well. After cooling, 1 microliter (μL) of 1×10^6 per mL Botrytis cinerea spore suspension is spot pipetted to the center of the agar. For the first experiment, inoculated plates are allowed to germinate for 5 days at 4° C. For the second experiment, plates are inoculated immediately prior to volatile fungicide treatment. Small Whatman #1 filter disks (Cat. No. 1001-0155) are placed, in duplicate, on the underside of a polyethylene PCR plate sealing film.
The acetone is permitted to evaporate for 5 minutes. The headspace around the Botrytis cinerea inoculum is then sealed inside the well by the film with the adhering disk containing the fungicide. Plates are inverted, placed over the treated disks and sealed to prevent any of the chemical from flaking from the disk and falling onto the inoculated agar. After 14 days of storage at 4° C., cultures are evaluated for percent growth relative to control. Regardless of whether the spores had germinated for 5 days, or if the treatment commenced soon after inoculation of the plates (˜15 minutes); there is 100% control of the fungal pathogen down to 0.005 mg.
A total of 14 antimicrobial compounds are tested using the in vitro inhibition assay described in Example 1. All 14 compounds are applied to the Whatman disks, in duplicate, in a dose dependent manner (0.31 to 0.0006 mg/disk). […] Other compounds, such as Compound C, Compound D, and Compound E conferred 100% control down to 0.023, 0.04, and 0.08 mg/disk, respectively. Results of nine compounds are summarized in Table 2, where the other five compounds show no detected activity in the ranges tested. […]

[3] = test system: Botrytis cinerea; assay: in vitro spore germination assay, temperature regimes; assay type: cell-based; details: B. cinerea spores; for inhibition at 0.035 µg/mL: 0.035 mg/L; for inhibition at 0.07 µg/mL: 0.07 mg/L; for inhibition at 0.14 µg/mL: 0.14 mg/L
Protocol: (§1) In order to assess the activity of Compound A as a volatile fungicide, an in vitro assay is developed to evaluate spore germination. Two mL of water agar is poured in 3.5 cm Petri plates. […] Plates are then incubated for either one day at 0° C., five day at 0° C., or five day at 0° C. plus an additional one or two days at 21° C.

[4] = test system: Penicillium expansum; assay: as above; assay type: cell-based; details: P. expansum spores; for inhibition at 0.035 µg/mL: 0.035 mg/L; for inhibition at 0.07 µg/mL: 0.07 mg/L; for inhibition at 0.14 µg/mL: 0.14 mg/L
Protocol: as §1

[5] = test system: Pectobacterium carotovorum; assay: in vitro volatile assay, minimum bactericidal concentration (Example 11); assay type: cell-based; details: headspace concentration; 23° C. for 48 hours
Protocol: (§2) 12-Well (6.5 mL volume per well) microtiter plates are used for the in vitro inhibition assay for volatile antimicrobial Compound A (FIG. 1) against numerous bacterial pathogens. A 3-mL volume of Nutrient agar is added to each well and allowed to dry before introducing the pathogen. Escherichia coli, Pectobacterium carotovorum, Xanthomonas axonopodis and Salmonella enterica cell suspensions are adjusted to an optical density of 0.2 to 0.35, and further diluted 1/10, and 15 μL is pipetted to the center of each well and tilted to distribute uniformly. A Whatman #1 filter paper (CAT 1001-0155) is placed on the underside of a polyethylene PCR plate sealing film. […] The films with the treated disks are then applied over the inoculated plates and sealed. Plates are inverted, and incubated at 23° C. for 48 hours. After the incubation period, the bacteria colonies are dislodged in sterile water containing tween 80 (0.001%) and the optical density (OD; 600 nm) is determined Results are summarized in Table 10, where the headspace concentration required to control at least 80% of bacterial growth is reported.

[6] = test system: Xanthomonas axonopodis; assay: as above; assay type: cell-based; details: headspace concentration; 23° C. for 48 hours
Protocol: as §2

OB1OCc2cc(F)ccc21 [Compound A]
Incidence (%) ([1]; 0.4 mg/L, Cellulose Paper): 37.5%
Severity (0-4) ([1]; 0.4 mg/L, Cellulose Paper): 0.8
Incidence (%) ([1]; 0.4 mg/L, Tyvek): 31.3%
Severity (0-4) ([1]; 0.4 mg/L, Tyvek): 0.5
Incidence (%) ([1]; 2 mg/L, Cellulose Paper): 37.5%
Severity (0-4) ([1]; 2 mg/L, Cellulose Paper): 0.7
Incidence (%) ([1]; 2 mg/L, Tyvek): 6.3%
Severity (0-4) ([1]; 2 mg/L, Tyvek): 0.1
Severity (0-4) ([1]; 10 mg/L, Cellulose Paper): 0.2
Incidence (%) ([1]; 10 mg/L, Tyvek): 6.3%
Severity (0-4) ([1]; 10 mg/L, Tyvek): 0.3
lowest rate with 100% control of Botrytis cinerea [2]: 0.005 mg/disk
inhibition at 0.035 µg/mL ([3]; 24 h, 1 day, 0° C.): 0%
inhibition at 0.07 µg/mL ([3]; 24 h, 1 day, 0° C.): 0%
inhibition at 0.14 µg/mL ([3]; 24 h, 1 day, 0° C.): 0%
inhibition at 0.035 µg/mL ([3]; 120 h, 5 day, 0° C.): 0%
inhibition at 0.07 µg/mL ([3]; 120 h, 5 day, 0° C.): 0%
inhibition at 0.14 µg/mL ([3]; 120 h, 5 day, 0° C.): 0%
inhibition at 0.035 µg/mL ([3]; 5 day, 0° C. 1 day, 21° C.): 0%
inhibition at 0.07 µg/mL ([3]; 5 day, 0° C. 1 day, 21° C.): 0%
inhibition at 0.14 µg/mL ([3]; 5 day, 0° C. 1 day, 21° C.): 0%
inhibition at 0.035 µg/mL ([4]; 24 h, 1 day, 0° C.): 0%
inhibition at 0.07 µg/mL ([4]; 24 h, 1 day, 0° C.): 0%
inhibition at 0.14 µg/mL ([4]; 24 h, 1 day, 0° C.): 0%
inhibition at 0.035 µg/mL ([4]; 120 h, 5 day, 0° C.): 0%
inhibition at 0.07 µg/mL ([4]; 120 h, 5 day, 0° C.): 0%
inhibition at 0.14 µg/mL ([4]; 120 h, 5 day, 0° C.): 0%
inhibition at 0.035 µg/mL ([4]; 5 day, 0° C. 1 day, 21° C.): 0%
inhibition at 0.07 µg/mL ([4]; 5 day, 0° C. 1 day, 21° C.): 0%
inhibition at 0.14 µg/mL ([4]; 5 day, 0° C. 1 day, 21° C.): 0%
Rate (mg/L) offering at least 80% control, P. carotovorum [5]: 2.2 mg/L
Rate (mg/L) offering at least 80% control, X. axonopodis [6]: 4.5 mg/L
